For one data set, the system named is gastric acid secretion. Put plainly: Inhibition of gastric acid secretion in rat, intravenous administration. Format: in vivo. The procedure:
(§1) 3 hours after administration the abdomen of the rat was incised and the pylorus was ligated under light ether anethesia. Histamine (30 mg/kg) and carbachol (30 μg/kg) were subcutaneously injected for acid stimulation. Immediately the abdomen was closed. Two hours later, the esophagus was ligated and the stomach was removed. The gastric juice was collected and acid output was quantified by titration using 0.1 N NaOH solution. As a control experiment, 1 ml of 50 mM phosphate buffer (pH 7.4) solution was orally administrated without any prodrug or proton pump inhibitory drug. Acid output was quantified by same method as described above, showing maximum histamine and carbachol-stimulated gastric acid secretion. Percentage inhibition was calculated from the fractional responses elicited by the test compound and a control experiment.
Inhibition of gastric acid secretion after intravenous administration of compounds of the invention was also examined. Lansoprazole sodium salt (20 mg) was dissolved in 40% hydroxypropyl-beta-cyclodextrin. The compounds of the invention used in this experiment were dissolved in phosphate buffered saline solution of pH 7.4. Each compound was injected intravenously at a dose of 5 μmole/kg or 10 μmole/kg (μmole per kg body weight of rat) as indicated in Table 4 below. Between 2 to 4 hours after injection gastric juice was collected, and the percentage of inhibition was determined as described above.

Data set [1] is described as follows: Stability in Britton Robinson buffers (hydrolysis of prodrug to PPI, HPLC). Particulars: Britton Robinson buffer, pH 7.
Description: The stability of Compounds 1, 2, 3, 4 and 5 of the invention in aqueous solution (0.1 mg/mL) was investigated in Britton Robinson buffers of pH 3, pH 7, and pH 9, respectively. A solution of 0.1 mg/mL concentration of each compound in each buffer was prepared and the solutions were stored at 37° C. for 1 h and then the concentrations of test compounds were determined by HPLC.
The test system of data set [2] is histamine and carbachol-stimulated gastric acid secretion. Put plainly: Inhibition of gastric acid secretion of the conscious male rat, oral administration. In kind it is in vivo, rat (Sprague-Dawley). Particulars: sodium salt, read-out: % inhibition of gastric acid secretion between 3-5 hours after administration; for inhibition in vivo at 20 µmol/kg: 20 μmole/kg; for inhibition in vivo at 40 µmol/kg: 40 μmole/kg; for inhibition in vivo at 10 µmol/kg: 10 μmole/kg. The procedure: Male rats (the Sprague-Dawley strain) were used in this experiment. OMEPRAZOLE sodium salt or LANSOPRAZOLE sodium salt (20 mg) was suspended in 10 ml of 0.1 N NaHCO3. 40 mg of each of the sodium salts of Compound 1, Compound 2, Compound 3, Compound 4, Compound 6 Compound 9, Compound 12, mixture (1:1) of Compound 16 and 17, mixture (1:1) of Compound 18 and 19, mixture (1:1) of Compound 20 and 21, mixture (1:1) of Compound 22 and 23, Compound 27, mixture (1:1) of Compound 34 and 35, and Compound 36 were dissolved in 10 ml of 50 mM sodium phosphate buffer, pH 7.4. The doses administered to the rats were as follows (μmole per kg body weight of the rat): OMEPRAZOLE (10 μmole/kg), LANSOPRAZOLE (10 μmole/kg), Compound 120 μmole/kg, Compound 2 40 μmole/kg, Compound 320 μmole/kg, Compound 420 μmole/kg, Compound 620 μmole/kg, Compound 940 μmole/kg, Compound 1240 μmole/kg, mixture (1:1) of Compound 16 and 17 40 μmole/kg, mixture (1:1) of Compound 18 and 19 40 μmole/kg, mixture (1:1) of Compound 20 and 21 40 μmole/kg, mixture (1:1) of Compound 22 and 23 40 μmole/kg, Compound 27 40 μmole/kg, mixture (1:1) of Compound 34 and 35 40 μmole/kg, and Compound 3640 μmole/kg. These drug solutions were orally administered.
as §1

Data set [3] can be described thus: Stability in plasma at 37° C. (gradient HPLC-UV), human plasma. In kind it is in vitro ADME. The procedure: (§2) Exemplary test compounds (prodrugs) of the invention were incubated in plasma at 37° C., and the concentration of the compounds and also of the corresponding proton pump inhibitor compounds (PPI) were determined by a gradient HPLC-UV method. Although the half-lives of test compounds in plasma varies depending on their structure, nevertheless it is apparent that in plasma the compounds of the invention are converted into the corresponding proton pump inhibitor at a rate faster than the hydrolysis rate of the compound at neutral or near neutral pH.

Data set [4] can be described thus: Stability in plasma at 37° C. (gradient HPLC-UV), rat plasma. Format: in vitro ADME. As for the experimental part:
as §2

Data set [5] in a line: Solubility in phosphate buffered saline buffer of pH 7.4 at 37° C. In kind it is physicochemical. To be noted: aqueous buffer, sodium salts, phosphate buffered saline buffer pH 7.4, read-out: Solubility at 37° C. Conc. The procedure: The solubility of the sodium salts of certain exemplary compounds of the present invention in a phosphate buffered saline buffer of pH 7.4 (50 mM sodium phosphate, 10 mM KCl, 0.1 M NaCl) and also in a more acidic Britton Robinson buffer of pH 3 (40 mM acetic acid, 40 mM phosphoric acid, 40 mM boric acid, 36 mM NaOH, and 19.6 mg/ml KCl) was also evaluated. […] The tested compounds were much less soluble little in the Britton Robinson buffer of pH 3, but still more soluble than the prior art compounds (a) through (f). This is understandable in view of the fact that in the buffer of pH 7.4 the compounds of the invention form a sodium salt, whereas in the buffer of pH 3 the compounds are less soluble free carboxylic acids. Thus, a solution of a sodium or other pharmaceutically acceptable salt of the compounds of the invention, or stated in an other way the compounds of the invention at pH 7 or above are highly soluble and therefore suitable for administration by intravenous injection.

Structures are written as SMILES.

Data on 14 compounds can be found in US6897227B2, “Prodrugs of proton pump inhibitors” (Winston Pharmaceuticals, Inc., priority 2002, dated 2005).

As for `Cc1c(OCC(F)(F)F)ccnc1C[S+]([O-])c1nc2ccccc2n1S(=O)(=O)c1cccc(C(=O)O)c1` (centres unmarked) [Compound 1, 3-{2-[3-Methyl-4-(2,2,2-trifluoro-ethoxy)-pyridin-2-ylmethanesulfinyl]-benzimidazole-1-sulfonyl}benzoic acid], the “% inhibition of gastric acid secretion between 2-4 hours after i.v. administration” value (from here on “% inhibition”) in the data set on gastric acid secretion (5 μmole/kg) is 83.7 ± 10.1%; with gastric acid secretion (10 μmole/kg) it was 90.6 ± 2.1%. Further, the half-life at 0.1 mg/mL in data set [1] is greater than 50 h. In addition, the inhibition in vivo at 20 µmol/kg in data set [2] is 81.9 ± 7.1%. Also, the values for the half-life in data set [3] and in data set [4] were 12 min and 14 min, respectively. In data set [5], the solubility is greater than 30 mg/mL.

Regarding `COc1ccc(S(=O)(=O)n2c([S+]([O-])Cc3nccc(OCC(F)(F)F)c3C)nc3ccccc32)cc1C(=O)[O-].[Na+]` (centres unmarked) [Compound 3, 2-methoxy-5-{2-[3-methyl-4-(2,2,2-trifluoro-ethoxy)-pyridin-2-ylmethanesulfinyl]benzimidazole-1-sulfonyl}-benzoic acid sodium salt], the half-life at 0.1 mg/mL in data set [1] is greater than 50 h. Also, in data set [2], the inhibition in vivo at 20 µmol/kg amounted to 84.9 ± 13.6%. Further, the half-life in data set [3] came to 10 min; in data set [4], 81 min. The solubility in data set [5] was greater than 50 mg/mL.

Take `CCC(Oc1ccc(S(=O)(=O)n2c([S+]([O-])Cc3nccc(OCC(F)(F)F)c3C)nc3ccccc32)cc1)C(=O)[O-].[Na+]` (centres unmarked) [Compound 4 Na salt, 2-(4-{2-[3-methyl-4-(2,2,2-trifluoro-ethoxy)-pyridin-2-ylmethanesulfinyl]-benzimidazole-1-sulfonyl}phenoxy)butyric acid sodium salt]: the values for the half-life in data set [3] and in data set [4] were 60 min and 98 min, respectively.

Take `Cc1cc(OCC(=O)[O-])cc(C)c1S(=O)(=O)n1c([S+]([O-])Cc2nccc(OCC(F)(F)F)c2C)nc2ccccc21.[Na+]` (centres unmarked) [Compound 5]: the half-life at 0.1 mg/mL in data set [1] was greater than 50 h. In addition, the half-life in data set [4] amounted to 31 min. The solubility in data set [5] was greater than 30 mg/mL.

For the compound `Cc1cc(OCC(=O)NCCCCCC(=O)[O-])cc(C)c1S(=O)(=O)n1c([S+]([O-])Cc2nccc(OCC(F)(F)F)c2C)nc2ccccc21.[Na+]` (centres unmarked) [Compound 6, 6-[2-(3,5-Dimethyl-4-{2-[3-methyl-4-(2,2,2-trifluoro-ethoxy)-pyridin-2-ylmethanesulfinyl]-benzimidazole-1-sulfonyl}-phenoxy)acetylamino]hexanoic acid sodium salt], the inhibition in vivo at 20 µmol/kg in data set [2] turned out to be 53.5 ± 18.3%. For the same compound, the half-life in data set [3] amounted to 60 min; in data set [4], 52 min.

In the case of `COCCCOc1ccnc(C[S+]([O-])c2nc3ccccc3n2S(=O)(=O)c2ccc(OCC(=O)[O-])cc2)c1C.[Na+]` (centres unmarked) [Compound 8, (4-{2-[4-(3-Methoxy-propoxy)-3-methyl-pyridin-2-ylmethanesulfinyl]-benzimidazole-1-sulfonyl}-phenoxy)-acetic acid sodium salt], the solubility in data set [5] was greater than 30 mg/mL.

Regarding `COc1ccc2nc([S+]([O-])Cc3ncc(C)c(OC)c3C)n(S(=O)(=O)c3ccc(OCC(=O)[O-])cc3)c2c1.[Na+]` (centres unmarked) [Compound 10, {4-[6-methoxy-2-(4-methoxy-3,5-dimethyl-pyridin-2-ylmethanesulfinyl)-benzimidazole-1-sulfonyl]-phenoxy}-acetic acid sodium salt], in the data set on gastric acid secretion (5 μmole/kg), the “% inhibition” value is given as 18.3 ± 11.9%.

Take `Cc1c(OCC(F)(F)F)ccnc1C[S+]([O-])c1nc2ccccc2n1S(=O)(=O)c1ccc(OCC(=O)NCCCC(=O)[O-])cc1C(C)C.[Na+]` (centres unmarked) [Compound 11]: the values for the half-life in data set [3] and in data set [4] were 14 min and 53 min, respectively.

For the compound `Cc1c(OCC(F)(F)F)ccnc1C[S+]([O-])c1nc2ccccc2n1S(=O)(=O)c1ccc(OCC(=O)[O-])c(OCC(=O)[O-])c1.[Na+].[Na+]` (centres unmarked) [Compound 12, (2-Carboxymethoxy-4-{2-[3-methyl-4-(2,2,2-trifluoro-ethoxy)-pyridin-2-ylmethanesulfinyl]-benzimidazole-1-sulfonyl}-phenoxy)-acetic acid di-sodium salt], the “% inhibition” value with gastric acid secretion (5 μmole/kg) amounted to 89.2 ± 6.8%; with gastric acid secretion (10 μmole/kg), 92.6 ± 2.9%. Besides, the inhibition in vivo at 40 µmol/kg in data set [2] was found to be 82.8 ± 9.6%. Further, the half-life stood at 51 min in data set [3] and 78 min in data set [4]. Also, the solubility in data set [5] is greater than 50 mg/mL.

For the compound `Cc1ccc(C(=O)[O-])cc1S(=O)(=O)n1c([S+]([O-])Cc2nccc(OCC(F)(F)F)c2C)nc2ccccc21.[Na+]` (centres unmarked) [Compound 27, 3-{2-[3-Methyl-4-(2,2,2-trifluoro-ethoxy)-pyridin-2-yl-methanesulfinyl]-benzimidazole-1-sulfonyl}-4-methylbenzoic acid sodium salt], the inhibition in vivo at 40 µmol/kg in data set [2] was 96.7 ± 1.3%. For the same compound, the half-life in data set [4] stood at 14 min.

For `COc1ccc(S(=O)(=O)n2c([S+]([O-])Cc3nccc(OCC(F)(F)F)c3C)nc3ccccc32)cc1CCC(=O)[O-].[Na+]` (centres unmarked) [Compound 36, 3-[2-Methoxy-5-{2-(3-methyl-4-(2,2,2-trifluoroethoxy)pyridin-2-yl-methanesulfinyl)-benzimidazole-1-sulfonyl}phenyl]propionic acid sodium salt], the inhibition in vivo at 40 µmol/kg in data set [2] is 89.8 ± 6.8%. In data set [4], this compound displayed a half-life of 19 min.

For `Cc1cc(OCC(=O)[O-])cc(C(C)C)c1S(=O)(=O)n1c([S+]([O-])Cc2nccc(OCC(F)(F)F)c2C)nc2ccccc21.[Na+]` (centres unmarked) [Compound 39, 4-[2-{3-Methyl-4-(2,2,2-trifluoroethoxy)pyridin-2-yl-methanesulfinyl}-benzimidazole-1-sulfonyl]-3-isopropyl-5-methylphenoxyacetic acid sodium salt], in data set [4], the half-life turned out to be 317 min.

In the case of `Cc1c(OCC(F)(F)F)ccnc1C[S+]([O-])c1nc2ccccc2[nH]1` (centres unmarked) [LANSOPRAZOLE, 2-[3-methyl-4-(2,2,2-trifluoroethoxy)pyridin-2-yl-methanesulfinyl]-1H-benzimidazole, reference compound], in the data set on gastric acid secretion (5 μmole/kg), the “% inhibition” value is reported as 91.5 ± 5.0%. Further, in data set [2], the inhibition in vivo at 10 µmol/kg is 67.6 ± 14.7%.

Take `COc1ccc2[nH]c([S+]([O-])Cc3ncc(C)c(OC)c3C)nc2c1` (centres unmarked) [OMEPRAZOLE, 5-methoxy-2-(4-methoxy-3,5-dimethyl-pyridin-2-yl-methanesulfinyl)-1H-benzimidazole, reference compound]: in data set [2], the inhibition in vivo at 10 µmol/kg is 54.6 ± 10.4%.

What is called half-life is how long it takes for the measured level to halve. A word on the solubility: it is the dissolved amount per volume that the medium holds.
